Patent publication US7786141B2 (Vertex Pharmaceuticals Incorporated, priority 2004, dated 2010)
Like-named read-outs stand apart in the source and are kept apart here.

Tests used:
M4 muscarinic receptor = target: T1, M4 muscarinic receptor (Homo sapiens, UniProt P08173); experiment: Functional mobilization of intracellular calcium (FLIPR) in M4-CHO cells; format: cell-based
T1 construct: expressed in transfected cells; host or cells: CHO (M4-CHO)
T1 sequence (P08173 1-479): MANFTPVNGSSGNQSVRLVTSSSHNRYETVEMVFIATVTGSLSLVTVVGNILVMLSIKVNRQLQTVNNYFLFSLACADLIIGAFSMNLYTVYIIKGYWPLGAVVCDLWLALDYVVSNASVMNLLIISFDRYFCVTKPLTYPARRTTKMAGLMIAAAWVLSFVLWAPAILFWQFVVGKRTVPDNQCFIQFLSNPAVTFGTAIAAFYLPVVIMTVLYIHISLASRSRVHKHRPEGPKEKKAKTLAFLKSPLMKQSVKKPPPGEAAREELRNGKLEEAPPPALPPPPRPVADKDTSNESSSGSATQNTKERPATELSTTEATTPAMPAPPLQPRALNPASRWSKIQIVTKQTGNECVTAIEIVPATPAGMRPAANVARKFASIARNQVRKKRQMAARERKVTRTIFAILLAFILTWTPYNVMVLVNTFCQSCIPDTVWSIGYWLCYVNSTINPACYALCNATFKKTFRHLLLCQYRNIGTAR
Procedure, shortened: (§1)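 FLIPR Ca2+ read, ex 488/em 540 nm, 60 s. Recombinant CHO lines (M1 or M4), dye-loaded Fluo-3 AM 60-90 min at 37° C, probenecid 1 mM, pH 7.4. Agonist: compound alone; inhibition: 15 min compound pre-incubation, then carbachol at EC80 for that subtype.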

M1 muscarinic receptor = target: T2, M1 muscarinic receptor (Homo sapiens, UniProt P11229); experiment: Functional mobilization of intracellular calcium (FLIPR) in M1-CHO cells; format: cell-based
T2 construct: expressed in transfected cells; host or cells: CHO (M1-CHO)
T2 sequence (P11229 1-460): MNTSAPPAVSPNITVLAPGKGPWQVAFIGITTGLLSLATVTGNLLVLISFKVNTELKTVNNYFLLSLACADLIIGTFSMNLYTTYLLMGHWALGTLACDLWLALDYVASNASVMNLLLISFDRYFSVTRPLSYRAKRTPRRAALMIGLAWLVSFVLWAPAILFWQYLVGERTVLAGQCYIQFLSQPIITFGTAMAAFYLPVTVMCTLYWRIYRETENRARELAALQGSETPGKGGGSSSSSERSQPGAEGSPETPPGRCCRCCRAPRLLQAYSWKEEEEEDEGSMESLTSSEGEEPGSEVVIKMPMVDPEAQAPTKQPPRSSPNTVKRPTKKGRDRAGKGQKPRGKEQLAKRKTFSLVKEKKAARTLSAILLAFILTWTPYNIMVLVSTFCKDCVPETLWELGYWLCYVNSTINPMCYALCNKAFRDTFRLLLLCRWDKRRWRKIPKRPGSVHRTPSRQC
Procedure, shortened: as §1

[1] = Table 4, 100% efficacy is the maximum response obtained with the Carbachol control
[2] = Table 4, M4 receptor, calcium mobilization (FLIPR)
[3] = Table 4, M1 receptor, calcium mobilization (FLIPR)
[4] = Table 4, modulating M4 receptor
[5] = Table 4, modulating M1 receptor
[6] = 100% efficacy is the maximum response obtained with the Carbachol control, Table 5
[7] = CHO cells expressing M4, calcium mobilization, Table 5
[8] = CHO cells expressing M1, calcium mobilization, Table 5
[9] = M4 receptor, calcium mobilization
[10] = M4 receptor, calcium mobilization, read-out: M4 Efficacy
[11] = M1 receptor, calcium mobilization
[12] = M1 receptor, calcium mobilization, read-out: M1 Efficacy
[13] = M4-CHO cells, calcium mobilization (FLIPR)
[14] = M4-CHO cells, calcium mobilization (FLIPR), read-out: M4 Efficacy
[15] = M1-CHO cells, calcium mobilization (FLIPR)
[16] = M1-CHO cells, calcium mobilization (FLIPR), read-out: M1 Efficacy

| Structure (SMILES) | Emax (M4 muscarinic receptor; [1]) | Emax (M1 muscarinic receptor; [1]) | M4 Activity (M4 muscarinic receptor; [9]) | Emax (M4 muscarinic receptor; [10]) | M1 Activity (M1 muscarinic receptor; [11]) | Emax (M1 muscarinic receptor; [12]) | also measured |
| --- | --- | --- | --- | --- | --- | --- | --- |
| Cc1cc(C(=O)N2CCC(N3CCC4(CC3)CN(C(=O)N(C)C)c3ccc(F)cc34)CC2)nn1C [compound 898] | < 25% | < 25% |  |  |  |  | M4 Activity (M4 muscarinic receptor; [2]): x (activity was measured to be greater than 5.0 μM); M1 Activity (M1 muscarinic receptor; [3]): x (activity was measured to be greater than 5.0 μM) |
| CN(C)C(=O)N1CC2(CCN(C3CCNCC3)CC2)c2cc(F)ccc21 [compound 685] | 25 to 100% | < 25% |  |  |  |  | M4 Activity (M4 muscarinic receptor; [4]): xxx (activity was measured to be less than 2.0 μM); M1 Activity (M1 muscarinic receptor; [5]): x (activity was measured to be greater than 5.0 μM) |
| CN(C)C(=O)N1CC2(CCN(C3CCN(c4cccc(F)c4)CC3)CC2)c2cc(F)ccc21 [compound 1025] |  |  |  |  |  |  | Emax (M4 muscarinic receptor; [6]): 25 to 100%; EC50 (M4 muscarinic receptor; [7]): < 2000 nM; Emax (M1 muscarinic receptor; [6]): 25 to 100%; EC50 (M1 muscarinic receptor; [8]): 2000 to 10000 nM |
| CC(=O)NC1CC2(CCN(C3CCCCCC3)CC2)c2ccccc21 (centres unmarked) [compound 159] |  |  | x (activity was measured to be greater than 1.0 μM) | > 85% | xx (activity was measured to be between 0.1 μM and 1.0 μM) | > 85% |  |
| CN(C)C(=O)N1CC2(CCN(C3CC4CCC(C3)N4C(=O)O[C@H]3CCOC3)CC2)c2cc(F)ccc21 (some centres unmarked) [compound 130] |  |  | xx (activity was measured to be between 0.1 μM and 1.0 μM) | < 65% | xxx (activity was measured to be less than 0.1 μM) | < 65% |  |
| CC(=O)N[C@@H]1CCC2(CCN(C3CCCCCC3)CC2)c2ccccc21 [compound 666] | 25 to 100% | < 25% |  |  |  |  | M4 Activity (M4 muscarinic receptor; [4]): xxx (activity was measured to be less than 2.0 μM); M1 Activity (M1 muscarinic receptor; [5]): x (activity was measured to be greater than 5.0 μM) |
| CC(=O)N1CC2(CCN(C[C@@H]3CCN(c4cnccn4)C3)CC2)c2c(C)cccc21 [compound 913] | < 25% | 25 to 100% |  |  |  |  | M4 Activity (M4 muscarinic receptor; [2]): x (activity was measured to be greater than 5.0 μM); M1 Activity (M1 muscarinic receptor; [3]): x (activity was measured to be greater than 5.0 μM) |
| O=C(O[C@@H]1CCOC1)N1CC2(CCN(C3CC4CCC(C3)N4C(=O)O[C@H]3CCOC3)CC2)c2cc(F)ccc21 (some centres unmarked) [compound 93] |  |  | xx (activity was measured to be between 0.1 μM and 1.0 μM) |  | xx (activity was measured to be between 0.1 μM and 1.0 μM) |  | M4 Efficacy (M4 muscarinic receptor; [9]): x (efficacy was calculated to be less than 65%); M1 Efficacy (M1 muscarinic receptor; [11]): x (efficacy was calculated to be less than 65%) |
| CN(C)C(=O)N1CC2(CCN(C3CCN(C(=O)C4COc5ccccc5O4)CC3)CC2)c2cc(F)ccc21 (centres unmarked) [compound 781] | < 25% | 25 to 100% |  |  |  |  | M4 Activity (M4 muscarinic receptor; [4]): x (activity was measured to be greater than 5.0 μM); M1 Activity (M1 muscarinic receptor; [5]): x (activity was measured to be greater than 5.0 μM) |
| CCOC(=O)N1CCC(N2CCC3(CC2)CN(C(=O)c2ccccc2)c2ccc(F)cc23)CC1 [compound 384] |  |  |  |  |  |  | EC50 (M4 muscarinic receptor; [13]): > 1000 nM; Emax (M4 muscarinic receptor; [14]): < 65%; EC50 (M1 muscarinic receptor; [15]): 100 to 1000 nM; Emax (M1 muscarinic receptor; [16]): < 65% |
| CCOC(=O)N1CCC(N2CCC3(CC2)CN(C(C)=O)c2ccc(C#N)cc23)CC1 [compound 862] | 25 to 100% | 25 to 100% |  |  |  |  | M4 Activity (M4 muscarinic receptor; [2]): xxx (activity was measured to be less than 2.0 μM); M1 Activity (M1 muscarinic receptor; [3]): xxx (activity was measured to be less than 2.0 μM) |
| CCCOC(=O)N1C2CCC1CC(N1CCC3(CC1)CN(C(=O)O[C@@H]1CCOC1)c1ccc(F)cc13)C2 (some centres unmarked) [compound 115] |  |  | xx (activity was measured to be between 0.1 μM and 1.0 μM) | < 65% | xxx (activity was measured to be less than 0.1 μM) | 65 to 85% |  |
| CC(=O)N1CC2(CCN(CC3CCCOC3)CC2)c2cc(F)ccc21 (centres unmarked) [compound 75] |  |  | xx (activity was measured to be between 0.1 μM and 1.0 μM) | 65 to 85% | xxx (activity was measured to be less than 0.1 μM) | < 65% |  |
| Clc1ccc2c(c1)C1(CCN(C3CC4CCC(C4)C3)CC1)CN2 (centres unmarked) [compound 85] |  |  | xx (activity was measured to be between 0.1 μM and 1.0 μM) | 65 to 85% | xxx (activity was measured to be less than 0.1 μM) | 65 to 85% |  |
| CN(C)C(=O)N1CC2(CCN(C3CCN(C(=O)CCC(F)(F)F)CC3)CC2)c2cc(F)ccc21 [compound 633] | < 25% | 25 to 100% |  |  |  |  | M4 Activity (M4 muscarinic receptor; [4]): x (activity was measured to be greater than 5.0 μM); M1 Activity (M1 muscarinic receptor; [5]): xx (activity was measured to be between 2.0 μM and 5.0 μM) |
| COC(=O)NC1CC2(CCN(C3C[C@@H]4CC[C@@H]3C4)CC2)c2ccccc21 (some centres unmarked) [compound 586] | 25 to 100% | 25 to 100% |  |  |  |  | M4 Activity (M4 muscarinic receptor; [4]): xxx (activity was measured to be less than 2.0 μM); M1 Activity (M1 muscarinic receptor; [5]): xxx (activity was measured to be less than 2.0 μM) |
| CC(=O)NC1CC2(CCN(C[C@H]3C[C@H]4CC[C@H]3C4)CC2)c2ccccc21 (some centres unmarked) [compound 161] |  |  | x (activity was measured to be greater than 1.0 μM) | > 85% | xx (activity was measured to be between 0.1 μM and 1.0 μM) | > 85% |  |
| CCCOC(=O)N1C2CCC1CC(N1CCC3(CC1)CN(C(=O)OC)c1ccc(F)cc13)C2 (centres unmarked) [compound 386] |  |  |  |  |  |  | EC50 (M4 muscarinic receptor; [13]): 100 to 1000 nM; Emax (M4 muscarinic receptor; [14]): < 65%; EC50 (M1 muscarinic receptor; [15]): 100 to 1000 nM; Emax (M1 muscarinic receptor; [16]): < 65% |
| CC#CC(C)OC(=O)N1CC[C@H](CN2CCC3(CC2)CN(C(=O)N(C)C)c2ccc(F)cc23)C1 (some centres unmarked) [compound 485] | < 25% | 25 to 100% |  |  |  |  | M4 Activity (M4 muscarinic receptor; [4]): xxx (activity was measured to be less than 2.0 μM); M1 Activity (M1 muscarinic receptor; [5]): xx (activity was measured to be between 2.0 μM and 5.0 μM) |
| CCOC(=O)N1CCC(N2CCC3(CC2)CN(C(C)=O)c2ccc(C(C)C)cc23)CC1 [compound 872] | 25 to 100% | 25 to 100% |  |  |  |  | M4 Activity (M4 muscarinic receptor; [2]): xxx (activity was measured to be less than 2.0 μM); M1 Activity (M1 muscarinic receptor; [3]): xxx (activity was measured to be less than 2.0 μM) |
| CCOC(=O)N1C2CCC1CC(N1CCC3(CC1)CN(C(=O)c1ccncc1)c1ccc(F)cc13)C2 (centres unmarked) [compound 308] |  |  | x (activity was measured to be greater than 1.0 μM) | < 65% | xxx (activity was measured to be less than 0.1 μM) | > 85% |  |
| CCOC(=O)N1C2CCC1CC(N1CCC3(CC1)CN(C(C)=O)c1c(C)cc(C)cc13)C2 (centres unmarked) [compound 827] | 25 to 100% | 25 to 100% |  |  |  |  | M4 Activity (M4 muscarinic receptor; [2]): xxx (activity was measured to be less than 2.0 μM); M1 Activity (M1 muscarinic receptor; [3]): xxx (activity was measured to be less than 2.0 μM) |
| CC(=O)N1CC2(CCN(C3CCN(c4nccs4)CC3)CC2)c2cc(F)ccc21 [compound 1019] |  |  |  |  |  |  | Emax (M4 muscarinic receptor; [6]): 25 to 100%; EC50 (M4 muscarinic receptor; [7]): < 2000 nM; Emax (M1 muscarinic receptor; [6]): 25 to 100%; EC50 (M1 muscarinic receptor; [8]): < 2000 nM |
